Data taken from US9670209B2 (ACADIA Pharmaceuticals Inc., priority 2013, dated 2017).
Marks after values point to notes of the source that are not given here.

What was measured:
[1] = molecular target: human M1 muscarinic acetylcholine receptor (Homo sapiens (Human), UniProt P11229); test: R-SAT (Receptor Selection and Amplification) assay, M1; assay type: cell-based; conditions: for M1 PEC50 AVG: NIH-3T3 cells; for Emax: read-out: M1 EFF % AVG
Procedure: (§1) Briefly, NIH-3T3 cells were grown in 96-well tissue culture plates to 70% to 80% confluence. Cells were transfected with plasmid DNAs using Superfect Reagent (QIAGEN, Valencia, Calif.) as per the manufacturer's protocols. […] Cells were then grown in a humidified atmosphere with 5% ambient CO2 for 4 to 6 days. Media were then removed from the plates, and beta-galactosidase activity was measured by the addition of o-nitrophenyl-D-galactopyranoside (in phosphate-buffered saline with 5% NP-40 detergent). […] All data represent the mean of three wells and were analyzed using the computer program Excel Fit, and EC50 determinations were made using least-squares fit analysis with GraphPad Software Inc. (San Diego, Calif.) software.

[2] = molecular target: human M2 muscarinic acetylcholine receptor (Homo sapiens (Human), UniProt P08172); test: R-SAT (Receptor Selection and Amplification) assay, M2; assay type: cell-based; conditions: for M2 PEC50 AVG: NIH-3T3 cells; for Emax: read-out: M2 EFF % AVG
Chain of human M2 muscarinic acetylcholine receptor (P08172 whole entry): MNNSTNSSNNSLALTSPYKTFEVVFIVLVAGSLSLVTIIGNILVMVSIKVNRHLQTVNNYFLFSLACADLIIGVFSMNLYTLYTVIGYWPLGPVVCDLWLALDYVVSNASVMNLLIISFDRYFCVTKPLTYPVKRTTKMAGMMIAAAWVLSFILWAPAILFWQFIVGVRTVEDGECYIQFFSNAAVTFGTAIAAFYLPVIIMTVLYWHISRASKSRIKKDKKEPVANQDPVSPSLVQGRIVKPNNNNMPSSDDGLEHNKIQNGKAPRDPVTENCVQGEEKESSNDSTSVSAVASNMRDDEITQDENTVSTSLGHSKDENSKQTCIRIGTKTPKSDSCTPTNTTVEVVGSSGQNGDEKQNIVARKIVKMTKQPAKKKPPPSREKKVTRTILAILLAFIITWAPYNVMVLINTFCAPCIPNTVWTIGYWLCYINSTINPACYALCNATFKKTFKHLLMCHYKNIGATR
Procedure: as §1

[3] = test system: tear secretion; test: Tear secretion (phenol red thread) in mice; assay type: in vivo, balb/c mice; conditions: for Effects on tear secretion compared to Comparative Compound 2: other studies using the same method (Table 2), statistically significant compared to vehicle
Procedure: The tear distance, in mm, is recorded. The mice were not anesthetized or otherwise sedated. […] Data are analyzed by repeated measures ANOVA with post-hoc Bonferroni comparisons to vehicle. […] Further details can be seen in FIG. 2.

[4] = molecular target: human M3 muscarinic acetylcholine receptor (Homo sapiens (Human), UniProt P20309); test: R-SAT (Receptor Selection and Amplification) assay, M3; assay type: cell-based; conditions: for M3 PEC50 AVG: NIH-3T3 cells; for Emax: read-out: M3 EFF % AVG
Chain of human M3 muscarinic acetylcholine receptor (P20309 whole entry): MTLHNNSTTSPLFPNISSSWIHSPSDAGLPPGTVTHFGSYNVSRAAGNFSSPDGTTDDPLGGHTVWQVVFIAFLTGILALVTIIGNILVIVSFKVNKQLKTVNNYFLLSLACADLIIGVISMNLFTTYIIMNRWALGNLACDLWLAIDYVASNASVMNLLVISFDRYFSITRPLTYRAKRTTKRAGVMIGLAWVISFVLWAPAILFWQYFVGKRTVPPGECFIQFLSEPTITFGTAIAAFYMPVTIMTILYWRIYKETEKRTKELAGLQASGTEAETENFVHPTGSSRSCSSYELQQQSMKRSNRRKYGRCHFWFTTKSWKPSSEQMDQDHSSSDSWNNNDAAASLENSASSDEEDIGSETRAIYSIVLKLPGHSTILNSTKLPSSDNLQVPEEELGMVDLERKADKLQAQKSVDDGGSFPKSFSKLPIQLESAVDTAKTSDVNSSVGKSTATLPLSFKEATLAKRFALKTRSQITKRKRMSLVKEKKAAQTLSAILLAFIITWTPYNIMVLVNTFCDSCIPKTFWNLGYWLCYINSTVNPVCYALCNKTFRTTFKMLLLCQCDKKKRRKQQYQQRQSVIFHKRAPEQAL
Procedure: as §1

[5] = molecular target: M1 muscarinic receptor (Homo sapiens (Human), UniProt P11229); test: M1 GTPγS binding assay; assay type: biochemical; conditions: for Emax: read-out: M1 GTPγS EFF % AVG;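 for Emax: efficacy relative to carbachol as 100%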
Chain of M1 muscarinic receptor (P11229 whole entry): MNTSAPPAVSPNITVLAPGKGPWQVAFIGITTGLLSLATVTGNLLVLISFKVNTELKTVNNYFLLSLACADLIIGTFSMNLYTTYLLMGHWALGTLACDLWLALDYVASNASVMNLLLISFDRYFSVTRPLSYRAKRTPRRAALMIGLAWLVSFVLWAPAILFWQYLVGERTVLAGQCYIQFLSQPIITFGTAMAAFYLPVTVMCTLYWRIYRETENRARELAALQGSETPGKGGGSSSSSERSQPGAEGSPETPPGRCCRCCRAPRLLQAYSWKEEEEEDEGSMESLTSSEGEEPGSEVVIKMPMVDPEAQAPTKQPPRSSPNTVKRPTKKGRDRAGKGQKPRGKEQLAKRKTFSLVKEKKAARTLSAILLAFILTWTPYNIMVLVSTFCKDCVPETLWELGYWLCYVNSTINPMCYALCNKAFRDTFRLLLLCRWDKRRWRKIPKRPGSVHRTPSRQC

[6] = percent efficacy vs carbachol = 100 percent
[7] = R-SAT, percent efficacy vs carbachol = 100 percent
[8] = first study of Table 2, 1 hr post-dosing, 5 μl drop of 0.1% to each eye
[9] = second study of Table 2, 1 hr post-dosing, 5 μl drop of 0.1% to each eye
[10] = second study of Table 2, 3 hr post-dosing, 5 μl drop of 0.1% to each eye
[11] = third study (pilocarpine 24-hour study), 3 hr post-dosing, 0.1% 5 μl drop, Pilocarpine 0.2% 20 μl drop
[12] = third study (pilocarpine 24-hour study), 6 hr post-dosing, 0.1% 5 μl drop, Pilocarpine 0.2% 20 μl drop
[13] = third study (pilocarpine 24-hour study), 24 hr post-dosing, 0.1% 5 μl drop, Pilocarpine 0.2% 20 μl drop

Chain of human M1 muscarinic acetylcholine receptor (P11229 whole entry): as above

| Structure (SMILES) | M1 PEC50 AVG [1] | M2 PEC50 AVG ([2]; R-SAT) | Emax [1, 6] [%] | Emax [2] [%] | Emax [4] [%] | Emax [5] [%] | EC50 [5] [nM] | other results |
| --- | --- | --- | --- | --- | --- | --- | --- | --- |
| CC(C)(C)OC(=O)N1C2CC[C@H]1C[C@@H](O)C2 [Comparative compound 2, reference compound] | 9.0 | 7.1 |  |  |  |  |  | M1 EFF % AVG [1, 6]: 126%; M2 EFF % AVG [2, 7]: 52%; Tear secretion [3, 8]: 149% *; Effect on tear secretion compared to vehicle ([3]; pilocarpine 24-hour study): not significantly different from vehicle; Tear secretion [3, 9]: 113%; Tear secretion [3, 10]: 123%; Tear secretion [3, 11]: 134%; Tear secretion [3, 12]: 110%; Tear secretion [3, 13]: 98%; M3 PEC50 AVG ([4]; R-SAT): 7.1; M3 EFF % AVG [4, 7]: 30%; M1 GTPγS PEC50 AVG ([5]; GTPγS binding): 7.9; M1 GTPγS EFF % AVG ([5]; GTPγS binding, percent efficacy vs carbachol = 100 percent): 32% |
| C[C@H](CN1[C@@H]2CC[C@H]1C[C@@H](OCC1CC1)C2)Cn1ncc2ccc(F)cc21 [Compound 307, 1-((R)-3-(3-(Cyclopropylmethoxy)-8-aza-bicyclo[3.2.1]octan-8-yl)-2-methylpropyl)-6-fluoro-1H-indazole] | 9.5 | 7.7 | 156 | 198 | 19 | 63 |  | M3 PEC50 AVG ([4]; R-SAT): 7.3; M1 GTPγS PEC50 AVG ([5]; GTPγS binding): 8.0 |
| CCCO[C@H]1C[C@H]2CC[C@@H](C1)N2C[C@@H](C)Cn1ncc2ccccc21 [Compound 319s, 1-((R)-3-(3-(propoxy)-8-aza-bicyclo[3.2.1]octan-8-yl)-2-methylpropyl)-1H-indazole] | 8.1 | 7.5 | 111 | 102 | 3 | 63 | 200 |  |
| COCC[C@H]1C[C@H]2CC[C@@H](C1)N2C[C@@H](C)Cn1ncc2ccc(F)cc21 [Compound 309, 1-((R)-3-(3-(2-Methoxyethyl)-8-aza-bicyclo[3.2.1]octan-8-yl)-2-methylpropyl)-6-fluoro-1H-indazole] | 9.4 | 7.5 | 123 | 176 | 18 | 53 |  | M3 PEC50 AVG ([4]; R-SAT): 6.9; M1 GTPγS PEC50 AVG ([5]; GTPγS binding): 7.3 |
| C=CCO[C@H]1C[C@H]2CC[C@@H](C1)N2C[C@@H](C)Cn1ncc2ccccc21 [Compound 305, 1-((R)-3-((1R,3R,5S)-3-(Allyloxy)-8-azabicyclo[3.2.1]octan-8-yl)-2-methylpropyl)-1H-indazole] | 8.1 | 6.9 | 115 | 107 | 4 | 70 | 79.4 | Tear secretion [3, 8]: 163% *; Effects on tear secretion compared to Comparative Compound 2 [3]: greater than that of Comparative Compound 2 |
| COCC[C@H]1C[C@H]2CC[C@@H](C1)N2C[C@@H](C)Cn1ncc2ccccc21 [Compound 303S, 1-((R)-3-((1R,3R,5S)-3-(2-Methoxyethyl)-8-azabicyclo[3.2.1]octan-8-yl)-2-methylpropyl)-1H-indazole] | 8.4 | 7.1 | 121 | 102 | 8 | 67 | 63.1 | Effects on tear secretion compared to Comparative Compound 2 [3]: greater than that of Comparative Compound 2; Tear secretion [3, 9]: 131%; Tear secretion [3, 10]: 134% * |
| C#CCO[C@H]1C[C@H]2CC[C@@H](C1)N2C[C@@H](C)Cn1ncc2ccccc21 [Compound 318s, 1-((R)-3-((1R,3R,5S)-3-(prop-2-ynyloxy)-8-azabicyclo[3.2.1]octan-8-yl)-2-methylpropyl)-1H-indazole] | 8.0 | 7.2 | 122 | 92 | 8 | 66 | 79.4 |  |
| COC/C=C1\C[C@H]2CC[C@@H](C1)N2C[C@@H](C)Cn1ncc2ccccc21 [Compound 320s, 1-((R)-3-((1R,3R,58)-3-(2-methoxyethylidene)-8-azabicyclo[3.2.1]octan-8-yl)-2-methylpropyl)-1H-indazole] | 8.2 | 7.2 | 109 | 90 | 8 | 60 | 158 |  |
| COCC[C@H]1C[C@H]2CC[C@@H](C1)N2C[C@@H](C)Cn1ncc2ccc(OC)cc21 [Compound 313, 1-((R)-3-((1R,3R,58)-3-(2-methoxyethyl)-8-azabicyclo[3.2.1]octan-8-yl)-2-methylpropyl)-6-methoxy-1H-indazole] | 8.2 | 7.3 | 116 | 111 | 7 | 49 | 39.8 |  |
| C#CCO[C@H]1C[C@H]2CC[C@@H](C1)N2C[C@@H](C)Cn1ncc2ccc(OC)cc21 [Compound 322s, 1-((R)-3-((1R,3R,5S)-3-(prop-2-ynyloxy)-8-azabicyclo[3.2.1]octan-8-yl)-2-methylpropyl)-6-methoxy-1H-indazole] | 8.0 | 7.1 | 86 | 44 | 5 | 42 | 79.4 |  |
| Cc1nn(C[C@H](C)CN2[C@@H]3CC[C@H]2C[C@@H](OCC2CC2)C3)c2ccccc12 [Compound 316, 1-((R)-3-(3-(cyclopropylmethoxy)-8-aza-bicyclo[3.2.1]octan-8-yl)-2-methylpropyl)-3-methyl-1H-indazole] | 7.9 | 6.6 | 78 | 81 | 5 | 88 | 31.6 |  |
| CC[C@@H]1C(=O)OC[C@@H]1Cc1cncn1C [Pilocarpine, reference compound] |  |  |  |  |  |  |  | Tear secretion compared to vehicle ([3]; pilocarpine 24-hour study, 3 and 6 hours post-dosing): statistically significant improved tear secretion; Tear secretion [3, 11]: 142% *; Tear secretion [3, 12]: 136% *; Tear secretion [3, 13]: 113% |
| CCOCC[C@H]1C[C@H]2CC[C@@H](C1)N2C[C@@H](C)Cn1ncc2ccccc21 [Compound 323, 1-((R)-3-((1R,3R,5S)-3-(2-ethoxyethyl)-8-azabicyclo[3.2.1]octan-8-yl)-2-methylpropyl)-1H-indazole] | 9.1 | 7.8 | 66 | 34 | -2 | 32 | 20 |  |
